The target of assay [1] is Platelet-derived growth factor receptor beta (Homo sapiens, UniProt P09619). The assay is described as follows: PDGFRβ HTRF Assay. (TR-FRET usually uses a lanthanide donor and a delayed reading to cut background.)
Description: Stock Solutions:Assay buffer stock solution, contains 50 mM Hepes, 10 mM MgCl2, 1 mM EGTA, and 0.01% Brij-35, 0.01% ovalbumin, 2 mM DTT at pH 7.5, in molecular biology grade water. […] Store at −80° C. in aliquots.TK-biotin peptide, 0.5 μM in molecular biology grade water, store at −20° C. in aliquots.ATP, 100 mM in molecular biology grade water, store at −20° C. in aliquots.HTRF KinEASE-TK kit: Allow the contents of the Cisbio kit to warm up to room temperature before use. This kit contains HTRF detection buffer, TK-Antibody labeled with Eu3+-cryptate, TK-substrate biotin and Streptavidin-XL665.TK Substrate-Biotin, reconstitute 500 μg lyopholized with 574 μL molecular biology grade water to prepare a 500 μM stock; After use, aliquot the rest and store at −20° C.TK Antibody-Cryptate, reconstitute lyophilized with 1 mL of molecular biology grade water (100× solution) then add 99 mL detection buffer to prepare a ready to use TK-antibody-cryptate solution; the concentration of the TK-antibody-cryptate reagent is not known.
In assay [2] the target is Vascular endothelial growth factor receptor 2 (Homo sapiens, UniProt P35968). The experiment in a line: VEGFR ADP GLO Assay. How it is done: Assay Procedure:Step 1. Dispensing inhibitors/controls: Using Echo, dispense 10 nL/well compound serial dilutions in DMSO to columns 1-22 (in 384-well plates) or columns 1-44 (in 1536-well plates). Dilution series=11 pt, 3-fold dilutions. The top compound concentration in the source plate is 4 mM. The top compound concentration in the assay plate is 10 uM. Using Echo, dispense 10 nl/well DMSO to column 23 (in 384-well plates) or columns 45-47 (in 1536-well plates). These wells will serve as negative control wells Using Echo, dispense 10 nl/well 400 uM TAK-593 in DMSO to column 24 (in 384-well plates) or column 48 (in 1536-well plates). The final concentration of TAK-593 in the assay should be 1 uM. These wells will serve as positive control wells.Step 2. Pre-incubation of inhibitors with kinase: Add 2 μL/well 2× kinase solution. Centrifuge at 1000 rpm for 1 min. Incubate at room temperature for 30 min.Step 3. Kinase cascade reaction: Add 2 μL/well 2× substrate/ATP solution to initiate kinase reactions. Centrifuge at 1000 rpm for 1 min. Incubate at room temperature for 180 min.Final concentrations of components in the assay:[VEGFR2]=5 nM;[ATP]=1.2 mM;[Srctide]=1 mg/mL;[DMSO] G; 1%.Step 4. Quench: Add 2 uL/well ADP Glo Reagent+0.05% CHAPS. […] Centrifuge at 1000 rpm for 1 min; Incubate at room temperature for 1 hour; Read Luminescence on a plate reader.
(ADP-Glo turns the ADP formed in a reaction into a luminescent signal.)

Structures are written as SMILES.

Vascular endothelial growth factor receptor 2, sequence (P35968 whole entry): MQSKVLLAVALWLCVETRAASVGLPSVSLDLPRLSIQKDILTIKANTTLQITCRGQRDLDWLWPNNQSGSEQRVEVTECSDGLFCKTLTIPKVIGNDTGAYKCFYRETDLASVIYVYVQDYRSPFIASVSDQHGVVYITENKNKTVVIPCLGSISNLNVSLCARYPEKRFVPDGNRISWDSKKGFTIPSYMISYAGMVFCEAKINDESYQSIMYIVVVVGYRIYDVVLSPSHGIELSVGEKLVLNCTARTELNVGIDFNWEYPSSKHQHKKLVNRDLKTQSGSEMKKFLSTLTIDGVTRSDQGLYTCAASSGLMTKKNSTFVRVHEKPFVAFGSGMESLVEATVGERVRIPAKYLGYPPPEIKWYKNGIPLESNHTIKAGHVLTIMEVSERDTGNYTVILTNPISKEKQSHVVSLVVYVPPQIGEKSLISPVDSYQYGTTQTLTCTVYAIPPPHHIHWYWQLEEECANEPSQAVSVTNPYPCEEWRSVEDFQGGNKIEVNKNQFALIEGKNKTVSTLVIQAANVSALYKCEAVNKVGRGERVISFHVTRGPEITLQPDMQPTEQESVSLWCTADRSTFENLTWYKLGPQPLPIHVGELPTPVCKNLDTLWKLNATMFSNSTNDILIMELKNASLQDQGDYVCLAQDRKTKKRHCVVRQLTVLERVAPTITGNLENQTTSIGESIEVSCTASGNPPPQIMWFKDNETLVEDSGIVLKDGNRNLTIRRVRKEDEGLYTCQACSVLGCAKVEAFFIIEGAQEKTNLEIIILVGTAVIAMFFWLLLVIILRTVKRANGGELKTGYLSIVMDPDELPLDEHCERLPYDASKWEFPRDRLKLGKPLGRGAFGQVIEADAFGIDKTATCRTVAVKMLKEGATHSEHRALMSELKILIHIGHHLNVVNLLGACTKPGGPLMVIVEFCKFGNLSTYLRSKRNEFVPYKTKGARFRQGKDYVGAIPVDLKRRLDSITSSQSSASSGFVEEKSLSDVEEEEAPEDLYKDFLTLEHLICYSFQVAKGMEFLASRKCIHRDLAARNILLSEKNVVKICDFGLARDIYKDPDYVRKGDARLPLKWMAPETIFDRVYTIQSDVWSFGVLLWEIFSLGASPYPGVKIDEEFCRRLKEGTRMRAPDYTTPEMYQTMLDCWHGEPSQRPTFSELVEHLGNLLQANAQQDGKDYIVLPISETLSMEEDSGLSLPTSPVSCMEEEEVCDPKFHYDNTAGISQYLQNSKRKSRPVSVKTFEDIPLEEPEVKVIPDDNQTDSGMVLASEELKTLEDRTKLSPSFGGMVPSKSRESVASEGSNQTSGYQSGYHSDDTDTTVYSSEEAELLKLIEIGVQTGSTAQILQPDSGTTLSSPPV
Platelet-derived growth factor receptor beta, sequence (P09619 whole entry): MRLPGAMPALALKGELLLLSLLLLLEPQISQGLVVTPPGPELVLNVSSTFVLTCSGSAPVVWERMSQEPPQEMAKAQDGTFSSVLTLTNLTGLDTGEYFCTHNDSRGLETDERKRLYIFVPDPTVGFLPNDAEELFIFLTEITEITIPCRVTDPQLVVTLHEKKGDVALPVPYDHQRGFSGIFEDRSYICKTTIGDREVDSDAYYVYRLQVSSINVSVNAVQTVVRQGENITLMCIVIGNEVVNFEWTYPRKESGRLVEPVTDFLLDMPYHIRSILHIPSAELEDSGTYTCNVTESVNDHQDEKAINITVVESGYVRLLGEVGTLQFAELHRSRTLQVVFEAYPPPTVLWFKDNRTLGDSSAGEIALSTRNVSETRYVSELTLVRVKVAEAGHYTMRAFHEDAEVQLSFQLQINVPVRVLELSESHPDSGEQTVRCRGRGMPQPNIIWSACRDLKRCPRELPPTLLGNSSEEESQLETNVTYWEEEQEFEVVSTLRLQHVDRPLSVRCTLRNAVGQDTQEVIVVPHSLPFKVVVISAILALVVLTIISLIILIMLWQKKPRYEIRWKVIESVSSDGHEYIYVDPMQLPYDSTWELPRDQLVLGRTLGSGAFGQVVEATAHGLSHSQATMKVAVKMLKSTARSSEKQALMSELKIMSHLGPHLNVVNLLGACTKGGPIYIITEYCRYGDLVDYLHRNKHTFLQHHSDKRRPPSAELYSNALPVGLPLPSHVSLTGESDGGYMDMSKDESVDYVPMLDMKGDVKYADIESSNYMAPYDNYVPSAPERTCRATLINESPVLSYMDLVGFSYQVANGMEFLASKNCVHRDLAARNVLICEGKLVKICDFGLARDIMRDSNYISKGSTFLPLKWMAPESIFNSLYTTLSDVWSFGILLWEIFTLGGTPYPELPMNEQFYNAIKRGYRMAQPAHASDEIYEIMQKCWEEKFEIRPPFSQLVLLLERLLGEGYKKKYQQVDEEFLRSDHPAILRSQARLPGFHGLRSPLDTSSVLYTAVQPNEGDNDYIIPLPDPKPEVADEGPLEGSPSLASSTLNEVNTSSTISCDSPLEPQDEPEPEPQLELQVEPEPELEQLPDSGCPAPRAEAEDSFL

In general, IC50 refers to the point on the concentration scale where inhibition reaches its midpoint. Take `CCOC1CN(CC(=O)Nc2cnc(C)c(NC(=O)c3cnn4cc(-c5cccnc5OC)sc34)c2)C1` [US20240109917, Example 401]: the half-maximal inhibitory concentration (IC50) was 0.3 nM in assay [1] and above 7500 nM in assay [2].
